Laboratory results published in ChEMBL document CHEMBL4265899, “Trisubstituted thiazoles as potent and selective inhibitors of Plasmodium falciparum protein kinase G (PfPKG)” (Bioorg Med Chem Lett, 2018).

Assays:
[1] = biological target: Glycogen synthase kinase-3 beta (Homo sapiens) (UniProt P49841); experiment: Inhibition of human GSK3beta at 100 nM
[2] = biological target: NUAK family SNF1-like kinase 1 (Homo sapiens) (UniProt O60285); experiment: Inhibition of human NUAK1 at 100 nM
[3] = biological target: Mitogen-activated protein kinase 14 (Homo sapiens) (UniProt Q16539); experiment: Inhibition of human p38a MAPK at 100 nM
[4] = biological target: Serine/threonine-protein kinase Nek6 (Homo sapiens) (UniProt Q9HC98); experiment: Inhibition of human NEK6 at 100 nM
Chain of Serine/threonine-protein kinase Nek6 (Homo sapiens) (Q9HC98 whole entry): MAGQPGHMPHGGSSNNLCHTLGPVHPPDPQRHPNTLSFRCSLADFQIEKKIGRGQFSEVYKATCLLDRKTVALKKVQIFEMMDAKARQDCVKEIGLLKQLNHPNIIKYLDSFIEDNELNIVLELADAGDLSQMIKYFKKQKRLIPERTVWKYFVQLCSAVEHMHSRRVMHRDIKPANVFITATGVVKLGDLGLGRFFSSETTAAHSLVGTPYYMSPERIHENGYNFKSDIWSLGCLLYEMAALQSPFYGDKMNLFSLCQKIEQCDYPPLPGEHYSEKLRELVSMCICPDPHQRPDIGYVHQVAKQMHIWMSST

[5] = Lipophilicity, log D of the compound at pH 7.4; settings: buffer
[6] = biological target: Tyrosine-protein kinase BTK (Homo sapiens) (UniProt Q06187); experiment: Inhibition of human BTK at 100 nM
[7] = biological target: Casein kinase 2 (Homo sapiens) (UniProt P67870+P68400+P19784+Q8NEV1); experiment: Inhibition of human CK2 at 100 nM; format: protein assay
[8] = biological target: Eukaryotic elongation factor 2 kinase (Homo sapiens) (UniProt O00418); experiment: Inhibition of human EF2K at 100 nM
[9] = biological target: Serine/threonine-protein kinase Chk2 (Homo sapiens) (UniProt O96017); experiment: Inhibition of human CHK2 at 100 nM
Chain of Serine/threonine-protein kinase Chk2 (Homo sapiens) (O96017 whole entry): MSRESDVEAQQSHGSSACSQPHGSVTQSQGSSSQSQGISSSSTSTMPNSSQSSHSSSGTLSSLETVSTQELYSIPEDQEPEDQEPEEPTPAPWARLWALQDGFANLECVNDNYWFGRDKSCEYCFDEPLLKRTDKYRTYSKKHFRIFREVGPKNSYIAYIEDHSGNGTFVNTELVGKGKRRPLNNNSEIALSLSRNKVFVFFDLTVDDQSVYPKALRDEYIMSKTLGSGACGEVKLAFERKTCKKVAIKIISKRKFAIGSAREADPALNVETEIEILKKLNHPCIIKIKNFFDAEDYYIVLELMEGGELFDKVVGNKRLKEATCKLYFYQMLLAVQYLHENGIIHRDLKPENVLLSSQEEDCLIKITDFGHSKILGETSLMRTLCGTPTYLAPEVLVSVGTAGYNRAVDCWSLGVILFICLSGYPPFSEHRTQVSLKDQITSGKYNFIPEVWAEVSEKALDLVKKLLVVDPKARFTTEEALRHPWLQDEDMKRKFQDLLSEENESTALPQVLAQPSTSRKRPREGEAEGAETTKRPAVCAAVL

[10] = biological target: Proto-oncogene tyrosine-protein kinase Src (Homo sapiens) (UniProt P12931); experiment: Inhibition of human Src at 100 nM
Chain of Proto-oncogene tyrosine-protein kinase Src (Homo sapiens) (P12931 2-536 limits assumed): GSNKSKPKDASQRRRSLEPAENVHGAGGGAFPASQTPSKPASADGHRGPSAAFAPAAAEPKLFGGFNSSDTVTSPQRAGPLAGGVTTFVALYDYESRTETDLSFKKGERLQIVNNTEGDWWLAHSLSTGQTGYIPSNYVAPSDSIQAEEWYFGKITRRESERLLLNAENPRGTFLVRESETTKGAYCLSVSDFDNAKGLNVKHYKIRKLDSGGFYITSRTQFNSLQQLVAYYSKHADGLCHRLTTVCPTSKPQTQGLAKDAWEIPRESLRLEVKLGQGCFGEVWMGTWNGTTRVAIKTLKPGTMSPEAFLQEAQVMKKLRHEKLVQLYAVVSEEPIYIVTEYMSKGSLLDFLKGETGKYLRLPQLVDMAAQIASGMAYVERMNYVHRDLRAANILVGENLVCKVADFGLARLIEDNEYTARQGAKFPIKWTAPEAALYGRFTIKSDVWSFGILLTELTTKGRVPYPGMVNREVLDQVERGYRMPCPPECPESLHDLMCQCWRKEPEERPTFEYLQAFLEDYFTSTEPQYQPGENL

[11] = Metabolic stability in mouse liver microsomes assessed as compound remaining after 40 mins; format: ADME, microsome; settings: read-out: Stability
[12] = Metabolic stability in human liver microsomes assessed as compound remaining after 40 mins; format: ADME, microsome; settings: read-out: Stability
[13] = biological target: Ribosomal protein S6 kinase alpha-1 (Homo sapiens) (UniProt Q15418); experiment: Inhibition of human RSK1 at 100 nM
Chain of Ribosomal protein S6 kinase alpha-1 (Homo sapiens) (Q15418 whole entry): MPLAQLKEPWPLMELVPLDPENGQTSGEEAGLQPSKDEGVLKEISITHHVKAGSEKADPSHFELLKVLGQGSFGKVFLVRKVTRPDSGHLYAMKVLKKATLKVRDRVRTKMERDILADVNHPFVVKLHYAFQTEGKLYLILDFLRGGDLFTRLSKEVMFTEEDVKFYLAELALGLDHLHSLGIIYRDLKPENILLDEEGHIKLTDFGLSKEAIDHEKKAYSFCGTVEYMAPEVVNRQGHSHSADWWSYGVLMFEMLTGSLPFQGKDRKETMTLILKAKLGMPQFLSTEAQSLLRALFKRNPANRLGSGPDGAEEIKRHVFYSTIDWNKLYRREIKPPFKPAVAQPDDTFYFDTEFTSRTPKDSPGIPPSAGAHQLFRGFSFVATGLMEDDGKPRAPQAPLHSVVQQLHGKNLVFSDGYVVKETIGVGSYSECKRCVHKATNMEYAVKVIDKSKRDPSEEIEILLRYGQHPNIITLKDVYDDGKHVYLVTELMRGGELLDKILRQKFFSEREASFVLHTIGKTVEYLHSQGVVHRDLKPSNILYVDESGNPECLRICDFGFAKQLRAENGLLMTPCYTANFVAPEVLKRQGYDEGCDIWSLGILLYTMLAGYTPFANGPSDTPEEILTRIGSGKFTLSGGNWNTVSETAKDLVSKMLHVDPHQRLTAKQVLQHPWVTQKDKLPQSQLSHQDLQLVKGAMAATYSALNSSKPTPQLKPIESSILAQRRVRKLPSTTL

[14] = biological target: Mitogen-activated protein kinase kinase kinase 11 (Homo sapiens) (UniProt Q16584); experiment: Inhibition of human MLK3 at 100 nM
[15] = biological target: Serine/threonine-protein kinase 26 (Homo sapiens) (UniProt Q9P289); experiment: Inhibition of human MST4 at 100 nM
Chain of Serine/threonine-protein kinase 26 (Homo sapiens) (Q9P289 2-416 limits assumed): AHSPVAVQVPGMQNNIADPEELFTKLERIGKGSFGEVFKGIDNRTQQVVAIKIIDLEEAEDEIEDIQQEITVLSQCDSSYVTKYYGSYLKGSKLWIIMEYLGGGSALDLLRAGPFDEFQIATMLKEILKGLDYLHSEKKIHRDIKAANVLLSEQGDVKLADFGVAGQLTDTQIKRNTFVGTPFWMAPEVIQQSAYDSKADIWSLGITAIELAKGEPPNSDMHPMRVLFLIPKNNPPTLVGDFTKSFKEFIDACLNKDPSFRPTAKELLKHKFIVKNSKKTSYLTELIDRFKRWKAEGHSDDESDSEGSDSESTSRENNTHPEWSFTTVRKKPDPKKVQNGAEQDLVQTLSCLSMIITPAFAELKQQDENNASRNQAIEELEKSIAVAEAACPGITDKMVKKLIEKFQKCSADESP

[16] = biological target: Ribosomal protein S6 kinase beta-1 (Homo sapiens) (UniProt P23443); experiment: Inhibition of human S6K1 at 100 nM
[17] = biological target: Insulin-like growth factor 1 receptor (Homo sapiens) (UniProt P08069); experiment: Inhibition of human IGF1R at 100 nM
[18] = biological target: RAC-alpha serine/threonine-protein kinase (Homo sapiens) (UniProt P31749); experiment: Inhibition of human PKBalpha at 100 nM
[19] = biological target: Interleukin-1 receptor-associated kinase 4 (Homo sapiens) (UniProt Q9NWZ3); experiment: Inhibition of human IRAK4 at 100 nM
Chain of Interleukin-1 receptor-associated kinase 4 (Homo sapiens) (Q9NWZ3 whole entry): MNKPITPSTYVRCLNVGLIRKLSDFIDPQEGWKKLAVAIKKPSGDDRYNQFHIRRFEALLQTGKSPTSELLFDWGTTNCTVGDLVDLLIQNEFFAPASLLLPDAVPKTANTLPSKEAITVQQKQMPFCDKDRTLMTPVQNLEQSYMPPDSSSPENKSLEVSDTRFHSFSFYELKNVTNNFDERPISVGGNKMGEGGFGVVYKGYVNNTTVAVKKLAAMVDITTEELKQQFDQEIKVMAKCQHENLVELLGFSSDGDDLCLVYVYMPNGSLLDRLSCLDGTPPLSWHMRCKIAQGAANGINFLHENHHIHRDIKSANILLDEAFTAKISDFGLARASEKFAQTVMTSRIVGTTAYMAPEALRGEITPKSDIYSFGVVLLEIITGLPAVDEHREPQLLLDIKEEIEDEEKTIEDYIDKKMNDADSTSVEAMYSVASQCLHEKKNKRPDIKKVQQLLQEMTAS

[20] = biological target: Ribosomal protein S6 kinase alpha-3 (Homo sapiens) (UniProt P51812); experiment: Inhibition of human RSK2 at 100 nM
Chain of Ribosomal protein S6 kinase alpha-3 (Homo sapiens) (P51812 whole entry): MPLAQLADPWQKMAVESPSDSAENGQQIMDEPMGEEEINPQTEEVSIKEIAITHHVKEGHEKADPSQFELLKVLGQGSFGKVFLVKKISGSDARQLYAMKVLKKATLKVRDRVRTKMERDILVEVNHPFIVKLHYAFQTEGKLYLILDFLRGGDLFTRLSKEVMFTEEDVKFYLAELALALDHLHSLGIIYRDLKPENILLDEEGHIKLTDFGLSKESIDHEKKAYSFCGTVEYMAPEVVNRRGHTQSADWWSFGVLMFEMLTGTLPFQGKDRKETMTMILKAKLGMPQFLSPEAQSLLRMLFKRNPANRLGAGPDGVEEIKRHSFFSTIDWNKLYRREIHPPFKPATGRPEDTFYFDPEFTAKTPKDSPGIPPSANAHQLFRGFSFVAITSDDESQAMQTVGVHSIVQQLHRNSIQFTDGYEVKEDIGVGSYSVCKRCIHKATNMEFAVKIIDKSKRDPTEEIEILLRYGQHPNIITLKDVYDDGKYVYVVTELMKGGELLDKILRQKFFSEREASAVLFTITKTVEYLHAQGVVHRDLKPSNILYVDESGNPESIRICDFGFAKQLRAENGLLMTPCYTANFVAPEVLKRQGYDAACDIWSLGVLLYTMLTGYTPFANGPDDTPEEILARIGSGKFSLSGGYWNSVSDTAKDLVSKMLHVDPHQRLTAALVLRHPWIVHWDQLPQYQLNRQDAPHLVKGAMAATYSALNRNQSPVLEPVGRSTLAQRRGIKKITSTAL

[21] = biological target: Serine/threonine-protein kinase BRSK2 (Homo sapiens) (UniProt Q8IWQ3); experiment: Inhibition of human BRSK2 at 100 nM
[22] = biological target: MAP/microtubule affinity-regulating kinase 3 (Homo sapiens) (UniProt P27448); experiment: Inhibition of human MARK3 at 100 nM
[23] = biological target: Aurora kinase A (Homo sapiens) (UniProt O14965); experiment: Inhibition of human Aurora A at 100 nM
[24] = biological target: Mitogen-activated protein kinase 8 (Homo sapiens) (UniProt P45983); experiment: Inhibition of human JNK1 at 100 nM
Chain of Mitogen-activated protein kinase 8 (Homo sapiens) (P45983 whole entry): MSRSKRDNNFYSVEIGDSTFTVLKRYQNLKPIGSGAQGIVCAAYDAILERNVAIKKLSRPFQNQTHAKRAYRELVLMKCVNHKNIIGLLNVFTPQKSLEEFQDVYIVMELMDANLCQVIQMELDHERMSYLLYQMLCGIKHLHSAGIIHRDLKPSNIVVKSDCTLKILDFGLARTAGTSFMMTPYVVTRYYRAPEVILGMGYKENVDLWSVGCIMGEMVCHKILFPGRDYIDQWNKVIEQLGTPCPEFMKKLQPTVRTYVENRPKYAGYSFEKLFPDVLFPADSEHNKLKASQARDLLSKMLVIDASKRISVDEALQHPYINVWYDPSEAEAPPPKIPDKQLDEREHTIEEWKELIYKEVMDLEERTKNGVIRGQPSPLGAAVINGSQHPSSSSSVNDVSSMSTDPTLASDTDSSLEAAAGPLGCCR

[25] = biological target: Vascular endothelial growth factor receptor 2 (Homo sapiens) (UniProt P35968); experiment: Inhibition of human VEGFR at 100 nM
[26] = biological target: T1, Inhibitor of nuclear factor kappa-B kinase subunit epsilon (Homo sapiens) (UniProt Q14164); settings: at 100 nM
T1 sequence (whole entry): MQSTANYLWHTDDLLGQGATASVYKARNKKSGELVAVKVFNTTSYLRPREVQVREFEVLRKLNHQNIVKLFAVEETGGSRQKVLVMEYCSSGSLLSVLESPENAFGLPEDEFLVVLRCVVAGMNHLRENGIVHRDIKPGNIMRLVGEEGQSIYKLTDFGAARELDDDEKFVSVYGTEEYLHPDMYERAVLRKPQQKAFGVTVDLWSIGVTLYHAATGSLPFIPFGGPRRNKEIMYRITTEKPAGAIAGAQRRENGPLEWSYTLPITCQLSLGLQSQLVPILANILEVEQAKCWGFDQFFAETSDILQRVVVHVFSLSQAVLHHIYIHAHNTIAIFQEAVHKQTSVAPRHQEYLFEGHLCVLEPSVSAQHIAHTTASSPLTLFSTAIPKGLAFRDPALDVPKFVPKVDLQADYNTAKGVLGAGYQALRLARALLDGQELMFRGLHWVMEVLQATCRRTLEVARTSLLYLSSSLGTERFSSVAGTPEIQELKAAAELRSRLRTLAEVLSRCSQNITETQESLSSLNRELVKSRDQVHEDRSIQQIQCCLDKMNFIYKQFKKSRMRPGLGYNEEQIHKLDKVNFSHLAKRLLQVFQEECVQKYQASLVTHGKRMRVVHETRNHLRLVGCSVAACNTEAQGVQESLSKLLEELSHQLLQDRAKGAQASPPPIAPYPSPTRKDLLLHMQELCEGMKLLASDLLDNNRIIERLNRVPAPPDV
Description: Inhibition of human IKKepsilon at 100 nM

[27] = biological target: Ephrin type-B receptor 3 (Homo sapiens) (UniProt P54753); experiment: Inhibition of human EPHB3 at 100 nM
[28] = biological target: Protein kinase C alpha type (Homo sapiens) (UniProt P17252); experiment: Inhibition of human PKCalpha at 100 nM
[29] = biological target: Serine/threonine-protein kinase PLK1 (Homo sapiens) (UniProt P53350); experiment: Inhibition of human PLK1 at 100 nM
Chain of Serine/threonine-protein kinase PLK1 (Homo sapiens) (P53350 whole entry): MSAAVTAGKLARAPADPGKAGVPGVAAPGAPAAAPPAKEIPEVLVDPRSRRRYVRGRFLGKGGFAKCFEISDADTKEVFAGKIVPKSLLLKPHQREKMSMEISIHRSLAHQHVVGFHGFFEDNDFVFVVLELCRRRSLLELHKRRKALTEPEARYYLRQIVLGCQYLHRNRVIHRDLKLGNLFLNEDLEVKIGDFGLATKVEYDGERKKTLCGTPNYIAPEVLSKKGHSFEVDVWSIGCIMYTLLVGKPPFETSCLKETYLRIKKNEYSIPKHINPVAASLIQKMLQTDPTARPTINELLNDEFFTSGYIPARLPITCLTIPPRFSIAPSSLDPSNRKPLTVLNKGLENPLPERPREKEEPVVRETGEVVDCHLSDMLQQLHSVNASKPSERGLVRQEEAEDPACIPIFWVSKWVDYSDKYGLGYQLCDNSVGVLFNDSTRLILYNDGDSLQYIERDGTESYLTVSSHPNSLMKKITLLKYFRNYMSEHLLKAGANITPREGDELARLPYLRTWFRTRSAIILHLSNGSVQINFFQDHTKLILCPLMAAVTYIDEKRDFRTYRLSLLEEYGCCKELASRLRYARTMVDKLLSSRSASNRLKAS

[30] = biological target: Tyrosine-protein kinase Lck (Homo sapiens) (UniProt P06239); experiment: Inhibition of human LCK at 100 nM
[31] = biological target: Maternal embryonic leucine zipper kinase (Homo sapiens) (UniProt Q14680); experiment: Inhibition of human MELK at 100 nM
[32] = biological target: Mitogen-activated protein kinase kinase kinase 7 (Homo sapiens) (UniProt O43318); experiment: Inhibition of human TAK1 at 100 nM

`CN1CCC(c2nc(-c3cccc(S(C)(=O)=O)c3)c(-c3ccnc(Nc4ccc(N5CCNCC5)cc4)n3)s2)CC1` gave an inhibition [1] of under 70%, an inhibition [2] of under 70% and an inhibition [3] of under 70%. For the same molecule, the inhibition [4] was under 70%, the logD [5] was 0.3 and the inhibition [6] was under 70%. It also gave an inhibition [7] of under 70%, an inhibition [8] of under 70% and an inhibition [9] of under 70%. It also gave an inhibition [10] of under 70%, a remaining at 40 min [11] of 89% and a remaining at 40 min [12] of 84%. It also gave an inhibition [13] of under 70%, an inhibition [14] of under 70% and an inhibition [15] of under 70%. The inhibition [16] was under 70%, the inhibition [17] was under 70% and the inhibition [18] was under 70%. The inhibition [19] was under 70%, the inhibition [20] was under 70% and the inhibition [21] was under 70%. It also gave an inhibition [22] of under 70%, an inhibition [23] of under 70% and an inhibition [24] of under 70%. It also gave an inhibition [25] of under 70%, an inhibition [26] of under 70% and an inhibition [27] of under 70%. The inhibition [28] was under 70%, the inhibition [29] was under 70% and the inhibition [30] was under 70%. The inhibition [31] was under 70% and the inhibition [32] was under 70%.

With `CN1CCC(c2nc(-c3ccc(F)c(NS(C)(=O)=O)c3)c(-c3ccnc(NCC4CC4)n3)s2)CC1` the inhibition [1] was under 70%, the inhibition [2] was under 70% and the inhibition [3] was under 70%. The inhibition [4] was under 70%, the logD [5] was 1.9 and the inhibition [6] was under 70%. For the same molecule, the inhibition [7] was under 70%, the inhibition [8] was under 70% and the inhibition [9] was under 70%. It also gave an inhibition [10] of under 70%, a remaining at 40 min [11] of 89% and a remaining at 40 min [12] of 95%. For the same molecule, the inhibition [13] was under 70%, the inhibition [14] was under 70% and the inhibition [15] was under 70%. For the same molecule, the inhibition [16] was under 70%, the inhibition [17] was under 70% and the inhibition [18] was under 70%. It also gave an inhibition [19] of under 70%, an inhibition [20] of under 70% and an inhibition [21] of under 70%. The inhibition [22] was under 70%, the inhibition [23] was under 70% and the inhibition [24] was under 70%. It also gave an inhibition [25] of under 70%, an inhibition [26] of under 70% and an inhibition [27] of under 70%. The inhibition [28] was under 70%, the inhibition [29] was under 70% and the inhibition [30] was under 70%. The inhibition [31] was under 70% and the inhibition [32] was under 70%.
